Data reported in patent US20040002119A1, “Method of predicting cell-based assay results using binding profiles” (priority 2002, published 2004).
“Also recorded” adds a separate entry of the source. Where two headings read alike, the source gives them in different places. Blank lines part the entries; values can stand above or below the compound they belong to.

Tests used:
[1] = tested on: human endometrial cells (Ishikawa cell line); test: Ishikawa endometrial cell stimulation assay (intrinsic alkaline phosphatase); format: cell-based; conditions: absorbance at 405 nm minus blank; FIG. 13
Method: The stimulation of human endometrial cells (Ishikawa cell line) was determined by increases in intrinsic alkaline phosphatase activity. […] The % Emax is defined as 100×(spectrophotometric reading at 405 nm with compound-blank)/(spectrophotometric reading at 405 nm estradiol-blank).

[2] = tested on: MCF-7 breast cancer cells; test: MCF-7 cell proliferation assay ([3H]-thymidine incorporation); format: cell-based, human; conditions: CPM, FIG. 11
Method: MCF-7 potency=(pEC50 or pIC50)(% cpm max or % cpm min).
Cell proliferation of MCF-7 breast cancer cells was determined by [^3H]-thymidine incorporation. Compounds were tested for their potential to either stimulate MCF-7 proliferation or inhibit proliferation. An EC50 or IC50 was determined for each compound tested.

ERα LBD = target: T1, ERα LBD (Homo sapiens, UniProt P03372); format: binding
T1 sequence (P03372 311-547 limits assumed): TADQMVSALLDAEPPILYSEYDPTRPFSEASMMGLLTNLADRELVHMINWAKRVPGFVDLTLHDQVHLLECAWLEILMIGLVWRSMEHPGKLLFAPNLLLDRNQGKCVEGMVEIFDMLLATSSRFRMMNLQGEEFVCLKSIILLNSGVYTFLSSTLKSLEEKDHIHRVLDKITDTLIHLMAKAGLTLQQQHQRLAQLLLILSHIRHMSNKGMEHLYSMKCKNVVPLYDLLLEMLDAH
Description: The peptide sequences were synthesized with biotin at one end, and coupled to fluorescently distinct microsphere populations (5.6 μm streptavidin-coated latex microsphere particles). Multiple peptides of the same sequence were coupled to microspheres having the same fluorescent label, creating 46 fluorescently distinct microsphere populations (45 peptides plus no-peptide control). The microspheres populations were then multiplexed (combined). Alternatively, the ERα LBD could be coupled to the fluorescent microspheres.
The Estrogen Receptor a Ligand Binding Domain (ERα LBD) was coupled to the fluorophore Alexa 532 (Molecular Probes, Inc., Eugene, Oreg.), which is suitable for use with 532 nm excitation sources. The excitation and emission spectra of Alexa 532 is intermediate between the green-fluorescent Alexa Fluor 488 dye and the orange-fluorescent Alexa Fluor 546 dye.
The resulting binding of peptide to LBD is detected by flow cytometric analysis as is known in the art (see, e.g. WO 01/75443). In the present example, binding of ERα to a microsphere subset was indicated by the acquisition of orange fluorescence, detected using a LX-100 instrument (Luminex Corporation, Austin, Tex.). The above procedure is repeated for each compound to create a library of Binding Profiles.
Binding Profiles for each of the six phage-identified peptides described above were also generated using the same multiplexed assay as described above.

Compound: O=C(c1ccc(OCCN2CCCCC2)cc1)c1c(-c2ccc(O)cc2)sc2cc(O)ccc12 [raloxifene]
stimulation of intrinsic alkaline phosphatase in Ishikawa cells [1]: very low stimulatory activity
MCF-7 cell proliferation with increasing compound concentration [2]: cell proliferation decreased

K7P2 peptide binding to ERα LBD over basal (ERα LBD; phage-identified peptide K7P2, 1 μM compound, FIG. 9): not
Compound: COc1ccc2c(c1)OC(C)(C)[C@@H](c1ccccc1)[C@@H]2c1ccc(OCCN2CCCC2)cc1 [levormeloxifene]

RAC3 (671-697) binding to ERα LBD relative to unliganded ERα LBD (ERα LBD): decreases
T1P3 peptide binding to ERα LBD over basal (ERα LBD): increased binding of T1P3 over basal
Compound: 4-OH tamoxifen
K7P2 peptide binding to ERα LBD over basal (ERα LBD): decreased binding of K7P2 over basal and not
binding of ERα LBD to coactivator, coregulator and corepressor peptides compared to basal (no compound) (ERα LBD): reduced the amount of peptide binding compared to basal binding; also recorded: decreases or only slightly increases binding
